pIC50: −log10 of the molar value.
What was measured:
Assay type in all cases: cell-based
[1] = Blockade of human K+ channel in HEK293 cells assessed as inhibition of outward delayed rectifying K+ current
HEK293 = test: Blockade of human K+ channel in HEK293 cells assessed as inhibition of outward delayed rectifying K+ current at 10 uM
[2] = target: Potassium voltage-gated channel subfamily A member 6 (Homo sapiens) (UniProt P17658); test: Blockade of Kv1.6 channel over-expressed in CHO cells assessed as inhibition of delayed rectifying K+ current at 10 uM
Sequence of Potassium voltage-gated channel subfamily A member 6 (Homo sapiens) (P17658 whole entry): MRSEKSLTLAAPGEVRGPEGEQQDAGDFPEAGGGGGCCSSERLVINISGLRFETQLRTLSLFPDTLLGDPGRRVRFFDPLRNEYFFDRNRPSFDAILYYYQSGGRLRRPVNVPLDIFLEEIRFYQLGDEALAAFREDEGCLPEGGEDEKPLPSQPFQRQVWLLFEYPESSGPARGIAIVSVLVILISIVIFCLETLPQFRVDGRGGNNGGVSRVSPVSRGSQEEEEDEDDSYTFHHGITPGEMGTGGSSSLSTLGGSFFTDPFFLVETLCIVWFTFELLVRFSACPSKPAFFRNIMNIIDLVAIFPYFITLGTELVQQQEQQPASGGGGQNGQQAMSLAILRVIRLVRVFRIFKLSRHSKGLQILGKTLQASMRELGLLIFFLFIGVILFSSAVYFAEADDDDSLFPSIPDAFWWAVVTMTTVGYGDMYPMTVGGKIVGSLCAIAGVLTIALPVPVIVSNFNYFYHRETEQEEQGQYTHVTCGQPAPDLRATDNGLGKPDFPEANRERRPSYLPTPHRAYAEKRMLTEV

[3] = target: Potassium voltage-gated channel subfamily A member 1 (Homo sapiens) (UniProt Q09470); test: Blockade of Kv1.1 channel over-expressed in CHO cells assessed as inhibition of delayed rectifying K+ current at 10 uM
Sequence of Potassium voltage-gated channel subfamily A member 1 (Homo sapiens) (Q09470 whole entry): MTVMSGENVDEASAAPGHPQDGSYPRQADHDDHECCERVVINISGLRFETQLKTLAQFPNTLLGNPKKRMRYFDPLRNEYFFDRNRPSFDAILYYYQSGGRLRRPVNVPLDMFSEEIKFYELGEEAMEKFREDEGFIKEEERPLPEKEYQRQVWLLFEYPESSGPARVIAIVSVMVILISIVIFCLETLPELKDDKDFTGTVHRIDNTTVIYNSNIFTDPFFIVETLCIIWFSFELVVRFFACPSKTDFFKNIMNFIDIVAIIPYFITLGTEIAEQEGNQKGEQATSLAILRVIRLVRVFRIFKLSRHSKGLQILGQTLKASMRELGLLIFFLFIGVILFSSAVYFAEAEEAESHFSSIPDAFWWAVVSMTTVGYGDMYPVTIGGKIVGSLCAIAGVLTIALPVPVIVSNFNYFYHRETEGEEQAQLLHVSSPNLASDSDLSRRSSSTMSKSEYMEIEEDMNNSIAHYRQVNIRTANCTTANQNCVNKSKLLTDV

[4] = target: Potassium voltage-gated channel subfamily A member 2 (Homo sapiens) (UniProt P16389); test: Blockade of Kv1.2 channel over-expressed in CHO cells assessed as inhibition of delayed rectifying K+ current at 10 uM
Sequence of Potassium voltage-gated channel subfamily A member 2 (Homo sapiens) (P16389 whole entry): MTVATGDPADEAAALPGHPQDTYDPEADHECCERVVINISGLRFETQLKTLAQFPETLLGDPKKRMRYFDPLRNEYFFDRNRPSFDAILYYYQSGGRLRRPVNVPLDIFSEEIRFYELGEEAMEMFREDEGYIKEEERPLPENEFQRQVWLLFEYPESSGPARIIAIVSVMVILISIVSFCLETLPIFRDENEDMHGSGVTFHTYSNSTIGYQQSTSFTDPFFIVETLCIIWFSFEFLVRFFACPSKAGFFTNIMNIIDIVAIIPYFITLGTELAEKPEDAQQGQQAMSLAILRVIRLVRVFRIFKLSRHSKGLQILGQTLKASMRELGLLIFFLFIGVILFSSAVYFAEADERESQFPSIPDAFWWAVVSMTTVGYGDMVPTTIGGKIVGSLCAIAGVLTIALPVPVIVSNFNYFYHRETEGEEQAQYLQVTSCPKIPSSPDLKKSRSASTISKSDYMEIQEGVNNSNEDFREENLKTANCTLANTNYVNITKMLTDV

[5] = target: Potassium voltage-gated channel subfamily A member 3 (Homo sapiens) (UniProt P22001); test: Blockade of Kv1.3 channel over-expressed in CHO cells assessed as inhibition of delayed rectifying K+ current at 10 uM
Sequence of Potassium voltage-gated channel subfamily A member 3 (Homo sapiens) (P22001 whole entry): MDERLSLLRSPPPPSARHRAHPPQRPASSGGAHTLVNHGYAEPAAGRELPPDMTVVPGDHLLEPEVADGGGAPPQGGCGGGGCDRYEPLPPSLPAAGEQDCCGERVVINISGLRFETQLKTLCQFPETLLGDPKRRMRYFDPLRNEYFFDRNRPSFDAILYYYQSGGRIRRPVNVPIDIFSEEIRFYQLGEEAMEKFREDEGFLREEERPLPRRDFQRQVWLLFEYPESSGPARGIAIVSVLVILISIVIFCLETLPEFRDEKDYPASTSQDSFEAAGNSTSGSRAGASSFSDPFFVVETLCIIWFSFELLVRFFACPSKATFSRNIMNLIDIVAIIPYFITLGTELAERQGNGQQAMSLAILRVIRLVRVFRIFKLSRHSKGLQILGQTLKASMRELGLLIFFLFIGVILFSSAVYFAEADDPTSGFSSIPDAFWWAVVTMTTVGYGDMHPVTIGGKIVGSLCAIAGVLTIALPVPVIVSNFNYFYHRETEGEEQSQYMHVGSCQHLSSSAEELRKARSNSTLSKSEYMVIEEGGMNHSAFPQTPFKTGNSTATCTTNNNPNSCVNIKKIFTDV

Row | SMILES | pIC50 [1] | also measured
1 | O=C(/C=C/c1ccc(OS(=O)(=O)c2ccc(F)cc2)cc1)c1ccccc1 | < 4.30 | 
2 | Cc1ccc(S(=O)(=O)Oc2ccc(/C=C/C(=O)c3ccc(O)cc3)cc2)cc1 | < 4.30 | 
3 | O=C(/C=C/c1ccc(O)cc1)c1ccc(O)cc1 [4,4'-DIHYDROXYCHALCONE] | < 4.30 | inhibition (HEK293): 28.2%
4 | O=C(/C=C/c1ccccc1)c1ccc(O)cc1 [4'-HYDROXYCHALCONE] | < 4.30 | 
5 | Cc1ccc(S(=O)(=O)Oc2ccc(/C=C/C(=O)c3ccccc3)cc2)cc1 | < 4.30 | 
6 | O=C(/C=C/c1ccc(OS(=O)(=O)c2ccccc2)cc1)c1ccccc1 | < 4.30 | 
7 | O=C(/C=C/c1ccccc1)c1ccccc1 [CHALCONE] | < 4.30 | inhibition (HEK293): 24.2%
8 | O=C(/C=C/c1ccc(O)cc1)c1ccccc1 [4-HYDROXYCHALCONE] | < 4.30 | 

Continued, in another order:

Row | pIC50 [1] | SMILES | also measured
9 | 5.80 | Cc1ccc(S(=O)(=O)Oc2ccc(C(=O)/C=C/c3ccc(O)cc3)cc2)cc1 | 
10 | < 5.00 | CC(=O)Nc1ccc(S(=O)(=O)Oc2ccc(C(=O)/C=C/c3ccc(O)cc3)cc2)cc1 | 
11 | 5.96 | Nc1ccc(S(=O)(=O)Oc2ccc(C(=O)/C=C/c3ccc(O)cc3)cc2)cc1 | 
12 | 5.62 | O=C(/C=C/c1ccc(O)cc1)c1ccc(OS(=O)(=O)c2ccccc2)cc1 | 
13 | < 5.00 | COc1ccc(/C=C/C(=O)c2ccc(OS(=O)(=O)c3ccc(C)cc3)cc2)cc1 | 
14 | 6.29 | Nc1ccc(S(=O)(=O)Oc2cccc(C(=O)/C=C/c3ccc(O)cc3)c2)cc1 | inhibition [2]: 44.2%; inhibition [3]: 87.5%; inhibition [4]: 87.4%; inhibition [5]: 20.6%
15 | 4.97 | O=C(/C=C/c1ccc(O)cc1)c1ccc(OS(=O)(=O)c2ccc([N+](=O)[O-])cc2)cc1 | 
16 | 6.07 | Nc1ccc(S(=O)(=O)Oc2ccc(C(=O)/C=C/c3ccccc3)cc2)cc1 | 
17 | 5.57 | O=C(/C=C/c1ccc(O)cc1)c1ccc(OS(=O)(=O)c2ccc(F)cc2)cc1 | 
